From US8541407B2 (ArQule, Inc., priority 2010, dated 2013)
pIC50: −log10 of the molar value. Counter-ions that a name gives are not always drawn.

Target: AKT1 (Homo sapiens (Human), UniProt P31749)
Experiment: Inactive Akt Alpha Screen Assay
Conditions: non *labeled: Akt Alpha Screen assay; read-out: AKT1 biochemical assay, IC50
Protocol: AKT1 activity was assayed using the GSK3-derived biotinylated peptide substrate, crosstide (biotin-[…]), and AlphaScreen™ (Amplified Luminescent Proximity Homogeneous Assay) technology. AKT1 activation was achieved by the addition of the activating kinases PDK1 and MAPKAPK2, lipid vesicles, and ATP. The extent of peptide phosphorylation was determined using a phospho-AKT substrate antibody and acceptor beads conjugated to Protein A and donor beads conjugated to streptavidin that bind to the biotin on the peptide. Excitation of the donor beads converted ambient oxygen to excited singlet oxygen which, when in close proximity to acceptor beads, reacted with acceptor beads resulting in signal amplification. […] The plates were incubated for 30 minutes at room temperature, and then stopped in the dark by the addition of 10 μL stop/detection mixture prepared in assay buffer containing EDTA, AlphaScreen™ Streptavidin Donor and Protein A Acceptor beads, and phospho-AKT substrate antibody for final concentrations of 10 mM EDTA, 500 ng/well of both AlphaScreen™ Streptavidin Donor beads and Protein A Acceptor beads, and phospho-AKT substrate antibody at a final dilution of 1:350. Assay plates were incubated for 90 minutes at room temperature in the dark, and the plates were read on a Perkin Elmer Envision Multilabel plate reader (excitation wavelength: […], emission wavelength: 570 nm). […] Envision Instrument Settings: • Instrument: Perkin Elmer Envision • Plate: 96 well • Program Name: • Excitation: Ex Top • Mirror: General Dual—Slot 2 • Excitation Filter: CFP430 Ex.

Chain of AKT1 (P31749 whole entry): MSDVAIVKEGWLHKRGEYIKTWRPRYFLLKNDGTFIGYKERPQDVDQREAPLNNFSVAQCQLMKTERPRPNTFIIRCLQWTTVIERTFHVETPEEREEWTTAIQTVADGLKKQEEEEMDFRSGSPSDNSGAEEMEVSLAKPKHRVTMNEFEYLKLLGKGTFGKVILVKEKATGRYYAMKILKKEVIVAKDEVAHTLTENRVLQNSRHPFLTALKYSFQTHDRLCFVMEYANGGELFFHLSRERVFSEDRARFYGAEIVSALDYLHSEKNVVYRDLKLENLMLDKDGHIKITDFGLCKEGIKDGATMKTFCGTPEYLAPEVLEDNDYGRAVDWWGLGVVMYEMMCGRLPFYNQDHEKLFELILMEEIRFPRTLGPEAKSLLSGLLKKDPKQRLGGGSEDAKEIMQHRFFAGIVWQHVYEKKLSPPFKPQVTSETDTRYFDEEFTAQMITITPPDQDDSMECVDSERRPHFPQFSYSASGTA

Structure (SMILES) | pIC50
O=C(c1ccc(F)cc1)N1CCN(Cc2ccc(-c3nnc4n3-c3cccnc3Nc3ccccc3-4)cc2)CC1 [Example 132, (4-(4-(9H-benzo[f]pyrido[2,3-b][1,2,4]triazolo[4,3-d][1,4]diazepin-3-yl)benzyl)piperazin-1-yl)(4-fluorophenyl)methanone] | 5.49
Fc1ccccc1N1CCN(Cc2ccc(-c3nnc4n3-c3cccnc3Nc3ccccc3-4)cc2)CC1 [Example 67, 3-(4-((4-(2-fluorophenyl)piperazin-1-yl)methyl)phenyl)-9H-benzo[f]pyrido[2,3-b][1,2,4]triazolo[4,3-d][1,4]diazepine] | 5.55
O=C(Nc1ccc(-c2nnc3n2-c2cccnc2Nc2ccccc2-3)cc1)c1ccc(F)c(F)c1 [Example 37, N-(4-(9H-benzo[f]pyrido[2,3-b][1,2,4]triazolo[4,3-d][1,4]diazepin-3-yl)phenyl)-3,4-difluorobenzamide] | 6.82
c1ccc2c(c1)Nc1ncccc1-n1c(-c3ccc(CN4CCOCC4)cc3)nnc1-2 [Example 84, 4-(4-(9H-benzo[f]pyrido[2,3-b][1,2,4]triazolo[4,3-d][1,4]diazepin-3-yl)benzyl)morpholine] | 5.80
Cc1ccccc1NC(=O)NC1CCN(Cc2ccc(-c3nnc4n3-c3cccnc3Nc3ccccc3-4)cc2)CC1 [Example 179, 1-(1-(4-(9H-benzo[f]pyrido[2,3-b][1,2,4]triazolo[4,3-d][1,4]diazepin-3-yl)benzyl)piperidin-4-yl)-3-(o-tolyl)urea] | 6.15
c1c[nH]c(-c2nnc3n2-c2cccnc2Nc2ccccc2-3)c1 [Example 4, 3-(1H-pyrrol-2-yl)-9H-benzo[f]pyrido[2,3-b][1,2,4]triazolo[4,3-d][1,4]diazepine] | 5.10
O=S(=O)(Cc1ccccc1)NC1CCN(Cc2ccc(-c3nnc4n3-c3cccnc3Nc3ccccc3-4)cc2)CC1 [Example 152, N-(1-(4-(9H-benzo[f]pyrido[2,3-b][1,2,4]triazolo[4,3-d][1,4]diazepin-3-yl)benzyl)piperidin-4-yl)-1-phenylmethanesulfonamide] | 5.74
CN(CCc1ccccn1)Cc1ccc(-c2nnc3n2-c2cccnc2Nc2ccccc2-3)cc1 [Example 75, N-(4-(9H-benzo[f]pyrido[2,3-b][1,2,4]triazolo[4,3-d][1,4]diazepin-3-yl)benzyl)-N-methyl-2-(pyridin-2-yl)ethanamine] | 5.96
COc1ccc(NC(=O)NC2CCN(Cc3ccc(-c4nnc5n4-c4cccnc4Nc4ccccc4-5)cc3)CC2)cc1Cl [Example 172, 1-(1-(4-(9H-benzo[f]pyrido[2,3-b][1,2,4]triazolo[4,3-d][1,4]diazepin-3-yl)benzyl)piperidin-4-yl)-3-(3-chloro-4-methoxyphenyl)urea] | 5.92
COCCN(C)Cc1ccc(-c2nnc3n2-c2cccnc2Nc2ccccc2-3)cc1 [Example 77, N-(4-(9H-benzo[f]pyrido[2,3-b][1,2,4]triazolo[4,3-d][1,4]diazepin-3-yl)benzyl)-2-methoxy-N-methylethanamine] | 5.33
Clc1ccc(-c2nnc3n2-c2cccnc2Nc2ccccc2-3)cc1 [Example 9, hydrochloride] | 5.29
O=C(Nc1ccc(-c2nnc3n2-c2cccnc2Nc2ccccc2-3)cc1)c1cnc2ccccc2n1 [Example 55, N-(4-(9H-benzo[f]pyrido[2,3-b][1,2,4]triazolo[4,3-d][1,4]diazepin-3-yl)phenyl)quinoxaline-2-carboxamide] | 6.80
O=C1NCN(c2ccccc2)C12CCN(Cc1ccc(-c3nnc4n3-c3cccnc3Nc3ccccc3-4)cc1)CC2 [Example 162, 8-(4-(9H-benzo[f]pyrido[2,3-b][1,2,4]triazolo[4,3-d][1,4]diazepin-3-yl)benzyl)-1-phenyl-1,3,8-triazaspiro[4.5]decan-4-one] | 6.02
O=C(Nc1ccc(-c2nnc3n2-c2cccnc2Nc2ccccc2-3)cc1)c1cccnc1 [Example 40, N-(4-(9H-benzo[f]pyrido[2,3-b][1,2,4]triazolo[4,3-d][1,4]diazepin-3-yl)phenyl)nicotinamide] | 6.59
N#Cc1ccc(C(=O)Nc2ccc(-c3nnc4n3-c3cccnc3Nc3ccccc3-4)cc2)cc1 [Example 38, N-(4-(9H-benzo[f]pyrido[2,3-b][1,2,4]triazolo[4,3-d][1,4]diazepin-3-yl)phenyl)-4-cyanobenzamide] | 6.85
COc1cccc(C(=O)N2CCN(Cc3ccc(-c4nnc5n4-c4cccnc4Nc4ccccc4-5)cc3)CC2)c1 [Example 138, (4-(4-(9H-benzo[f]pyrido[2,3-b][1,2,4]triazolo[4,3-d][1,4]diazepin-3-yl)benzyl)piperazin-1-yl)(3-methoxyphenyl)methanone] | 5.66
CS(=O)(=O)OCc1ccc(-c2nnc3n2-c2cccnc2Nc2ccccc2-3)cc1 [Example 64, 4-(9H-benzo[f]pyrido[2,3-b][1,2,4]triazolo[4,3-d][1,4]diazepin-3-yl)benzyl methanesulfonate] | 6.31

Structure (SMILES) | pIC50
O=C(NCCc1ccc(Cl)cc1)NC1CCN(Cc2ccc(-c3nnc4n3-c3cccnc3Nc3ccccc3-4)cc2)CC1 [Example 180, 1-(1-(4-(9H-benzo[f]pyrido[2,3-b][1,2,4]triazolo[4,3-d][1,4]diazepin-3-yl)benzyl)piperidin-4-yl)-3-(4-chlorophenethyl)urea] | 6.03
Fc1cccc(F)c1-c1nnc2n1-c1cccnc1Nc1ccccc1-2 [Example 16] | 4.55
COC(=O)c1ccc(-c2nnc3n2-c2cccnc2Nc2ccccc2-3)cc1 [Example 25, methyl 4-(9H-benzo[f]pyrido[2,3-b][1,2,4]triazolo[4,3-d][1,4]diazepin-3-yl)benzoate] | 5.59
c1ccc(-c2nnc(C3CCN(Cc4ccc(-c5nnc6n5-c5cccnc5Nc5ccccc5-6)cc4)CC3)o2)cc1 [Example 207, 2-(1-(4-(9H-benzo[f]pyrido[2,3-b][1,2,4]triazolo[4,3-d][1,4]diazepin-3-yl)benzyl)piperidin-4-yl)-5-phenyl-1,3,4-oxadiazole] | 6.18
O=C(Nc1ccc(-c2nnc3n2-c2cccnc2Nc2ccccc2-3)cc1)c1ccc2c(c1)OCO2 [Example 47, N-(4-(9H-benzo[f]pyrido[2,3-b][1,2,4]triazolo[4,3-d][1,4]diazepin-3-yl)phenyl)benzo[d][1,3]dioxole-5-carboxamide] | 7.28
CCCN(C)Cc1ccc(-c2nnc3n2-c2cccnc2Nc2ccccc2-3)cc1 [Example 90, N-(4-(9H-benzo[f]pyrido[2,3-b][1,2,4]triazolo[4,3-d][1,4]diazepin-3-yl)benzyl)-N-methylpropan-1-amine] | 5.60
O=C(Nc1cccc(F)c1)NC1CCN(Cc2ccc(-c3nnc4n3-c3cccnc3Nc3ccccc3-4)cc2)CC1 [Example 178, 1-(1-(4-(9H-benzo[f]pyrido[2,3-b][1,2,4]triazolo[4,3-d][1,4]diazepin-3-yl)benzyl)piperidin-4-yl)-3-(3-fluorophenyl)urea] | 6.10
O=C(Nc1ccc(-c2nnc3n2-c2cccnc2Nc2ccccc2-3)cc1)c1ccncc1 [Example 58, N-(4-(9H-benzo[f]pyrido[2,3-b][1,2,4]triazolo[4,3-d][1,4]diazepin-3-yl)phenyl)isonicotinamide] | 6.46
COc1ccc(CCNC(=O)NC2CCN(Cc3ccc(-c4nnc5n4-c4cccnc4Nc4ccccc4-5)cc3)CC2)cc1OC [Example 169, 1-(1-(4-(9H-benzo[f]pyrido[2,3-b][1,2,4]triazolo[4,3-d][1,4]diazepin-3-yl)benzyl)piperidin-4-yl)-3-(3,4-dimethoxyphenethyl)urea] | 5.22
c1ccc2c(c1)Nc1ncccc1-n1c(-c3ccc(CN4CCC(c5nnc(-c6ccncc6)[nH]5)CC4)cc3)nnc1-2 [Example 131, 3-(4-((4-(5-(pyridin-4-yl)-4H-1,2,4-triazol-3-yl)piperidin-1-yl)methyl)phenyl)-9H-benzo[f]pyrido[2,3-b][1,2,4]triazolo[4,3-d][1,4]diazepine] | 6.77
Cn1cnc(S(=O)(=O)NCc2ccc(-c3nnc4n3-c3cccnc3Nc3ccccc3-4)cc2)c1 [Example 103, N-(4-(9H-benzo[f]pyrido[2,3-b][1,2,4]triazolo[4,3-d][1,4]diazepin-3-yl)benzyl)-1-methyl-1H-imidazole-4-sulfonamide] | 6.62
Fc1ccc(-c2nnc3n2-c2cccnc2Nc2ccccc2-3)cc1 [hydrochloride] | 4.64
O=S(=O)(NCc1ccc(-c2nnc3n2-c2cccnc2Nc2ccccc2-3)cc1)c1cccc(F)c1 [Example 113, N-(4-(9H-benzo[f]pyrido[2,3-b][1,2,4]triazolo[4,3-d][1,4]diazepin-3-yl)benzyl)-3-fluorobenzenesulfonamide] | 6.40
COCCNCc1ccc(-c2nnc3n2-c2cccnc2Nc2ccccc2-3)cc1 [Example 73, N-(4-(9H-benzo[f]pyrido[2,3-b][1,2,4]triazolo[4,3-d][1,4]diazepin-3-yl)benzyl)-2-methoxyethanamine] | 5.34
Cc1cc(C(=O)Nc2ccc(-c3nnc4n3-c3cccnc3Nc3ccccc3-4)cc2)no1 [Example 48, N-(4-(9H-benzo[f]pyrido[2,3-b][1,2,4]triazolo[4,3-d][1,4]diazepin-3-yl)phenyl)-5-methylisoxazole-3-carboxamide] | 6.92
c1ccc(-c2nnc3n2-c2ccccc2Nc2ccccc2-3)cc1 [Example 20, 3-phenyl-9H-dibenzo[b,f][1,2,4]triazolo[4,3-d][1,4]diazepine] | 5.72
